Reference: patent publication US20230175195A1, “PLASMA COATING TREATMENT METHOD FOR INHIBITING BIOLOGICAL PATHOGEN TRANSFER” (MOLECULAR PLASMA GROUP S.A., priority 2020, published 2023)
Read-outs that look alike come from different tables or passages of the source.

How the values were obtained:
[1] = system: Staphylococcus aureus (gram-positive); experiment: Quantitative antibacterial activity test of treated materials (OECD guideline, ISO 22197/20743), gram-positive; format: cell-based, S. aureus ATCC6538P
Bacteriophage MS2 = experiment: Viral load reduction test per ASTM E2721-16 with MS2 instead of Influenza A, on plasma-coated substrate; format: cell-based
[2] = system: Escherichia coli (gram-negative); experiment: Quantitative antibacterial activity test of treated materials (OECD guideline, ISO 22197/20743), gram-negative
Excerpt: The coatings in the tests described below were obtained using a PlasmaSpot® by Molecular Plasma Technology, using a power around 100 W (but any power between 60-450 W can work), a voltage about 15 kV (but any voltage between 5 and 25 kV seems to work), a frequency about 60 kHz, plasma gas N2, (but also N2, He, Ar, even air and mixtures thereof can be used), a plasma gas flowabout 100 slm (but any plasma flow between 10 and 250 slm can be used), the precursor injected as aerosol (but a liquid precursor, gas precursor, a mixture of liquids, solutions, dispersions, etc . . . also work well), a working distance about 8 mm (but any working distance between 1 and 20 mm seems to work), a temperature about room temperature.
Further tests were performed to illustrate antibacterial behaviour. Tests were performed on a polypropylene nonwoven (PPNW) substrate having a density of 25 g/m^2, which is commonly used as the outer layer of a surgical face mask, and on the synthetic textile Tyvek®.
Droplets containing bacterial suspension are placed on the treated material and evaluated after an incubation period. After the incubation, the bacteria are recovered from the tested material by washing it with a recovery medium. This recovery medium is then analysed for presence of the pathogen by incubation of the recovery medium on agar plates.
The bacteriae used in the testing were Staphylococcus aureus (gram-positive) and Escherichia coli (gram-negative).
The test is based on the international standard given by OECD guidelines for testing of chemicals based on ISO standards 22197/20743: Quantitative method for evaluating antibacterial activity of porous and non-porous antibacterial treated materials.

[3] = plasma coating on PPNW substrate (polypropylene nonwoven, 25 g/m^2)
[4] = plasma coating on synthetic textile substrate (Tyvek)
[5] = plasma coating of the precursor on Tyvek substrate, MS2 phages, LOD = limit of detection

Compound | % Gram+ bacteria reduced [1, 3] | Gram+ log reduction [1, 3] | % Gram+ bacteria reduced [1, 4] | Gram+ log reduction [1, 4] | LOG Reduction (Bacteriophage MS2; [5]) | % Gram− bacteria reduced [2, 3] | Gram− log reduction [2, 3] | % Gram− bacteria reduced [2, 4] | Gram− log reduction [2, 4] | LOG Reduction (Bacteriophage MS2)
CCCCCCCCCCCCCCCCCC[N+](C)(C)CCC[Si](OC)(OC)OC.[Cl-] [SiQAM, Dimethyloctadecyl[3-(trimethoxysilyl)propyl] ammonium chloride] | >99.994% | >4.2 | >99.95% | >3.3 | 1.56 | >99.9996% | >5.4 | >98.7% | >1.9 | –
Benzalkonium chloride | >99.994% | >4.2 | >99.5% | >3.3 | – | 99.9996% | 5.4 | 98.7% | 1.9 | >3.8 (LOD)
Citric Acid | >99.995% | >4.3 | >99.98% | >3.8 | >5.0 (LOD) | >99.999% | >5.0 | 97.5% | 1.6 | –
PVP-I2 Poly(vinylpyrrolidone)-Iodine complex [reference compound] | >99.994% | >4.2 | – | – | – | >99.9996% | >5.4 | – | – | –
